Data reported in patent US20260226071A1, “2, 4-DIANILINOPYRIMIDINE-BASED AURORA-A KINASE SELECTIVE DEGRADATION INDUCING COMPOUNDS” (UPPTHERA, INC., priority 2023, published 2026).

Columns and labels:
NCI-H446 cell line = assay: Cell viability assay for NCI-H446 cell line; type: cell-based; details: Homo sapiens, NCI-H446, 120 h; H446 cells, 5 days culture, EZ-Cytox; read-out: IC50 value (Level)
In short: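 Viability was measured by absorbance at 450 nm after 4 h with EZ-Cytox, following 5-day exposure of NCI-H446 cells (RPMI 1640, 10% FBS, 37 °C, 5% CO2) to 3-fold serial dilutions from 1000 nM down to 0.15 nM, added 24 h post-seeding.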

Aurora kinase A (AURKA) = biological target: T1, Aurora kinase A (AURKA) (Homo sapiens, UniProt O14965); assay: Luciferase assay for AURKA in HeLa LgBit (AURKA-HiBit KI) cell line; type: cell-based; details: HeLa LgBit (AURKA-HiBit KI) cells, measured after 12 hours
T1 construct: endogenous in cells; host or cells: HeLa LgBit (AURKA-HiBit KI), CRISPR/Cas9 knock-in at the endogenous AURKA locus
T1 sequence (O14965 1-403): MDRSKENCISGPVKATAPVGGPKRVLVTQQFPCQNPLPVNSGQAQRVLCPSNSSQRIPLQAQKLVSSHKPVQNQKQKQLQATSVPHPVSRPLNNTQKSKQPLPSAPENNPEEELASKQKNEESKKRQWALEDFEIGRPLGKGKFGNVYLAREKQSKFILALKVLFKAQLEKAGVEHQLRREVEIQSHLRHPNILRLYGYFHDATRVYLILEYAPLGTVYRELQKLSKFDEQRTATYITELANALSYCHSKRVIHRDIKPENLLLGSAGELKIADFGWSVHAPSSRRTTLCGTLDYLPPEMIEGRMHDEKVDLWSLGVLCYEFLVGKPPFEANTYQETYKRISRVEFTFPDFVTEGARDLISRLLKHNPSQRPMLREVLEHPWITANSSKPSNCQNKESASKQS
In short: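 Test compounds (10 nM or 100 nM) added to AURKA-HiBit knock-in HeLa LgBit cells that had been pre-loaded with Endurazine for 2 h following an 18 h culture at 3×10^4 cells. Endogenous AURKA-HiBit level followed by luminescence (470-480 nm), measured after 12 h.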

| Structure (SMILES) | luminescence value (Level) (Aurora kinase A (AURKA); 10 nM compound) | luminescence value (Level) (Aurora kinase A (AURKA); 100 nM compound) | IC50 (NCI-H446 cell line) [nM] |
| --- | --- | --- | --- |
| O=C1CCC(c2ccc(N3CCC(O)(CCC4CCN(NC(=O)c5ccc(Nc6ncc(F)c(Nc7ccc(C(=O)Nc8ccccc8Cl)cc7)n6)cc5)CC4)CC3)c(F)c2)C(=O)N1 (stereo not drawn) [Compound 96, N-(2-chlorophenyl)-4-((2-((4-((4-(2-(1-(4-(2,6-dioxopiperidin-3-yl)-2-fluorophenyl)-4-hydroxypiperidin-4-yl)ethyl)piperidin-1-yl)carbamoyl)phenyl)amino)-5-fluoropyrimidin-4-yl)amino)benzamide] | A (A is <0.3) | A (A is <0.2) | < 50 |
| O=C1CCC(c2ccc(N3CCC(CN4CC5(CCN(NC(=O)c6ccc(Nc7ncc(F)c(Nc8ccc(C(=O)Nc9ccccc9Cl)cc8)n7)cc6)CC5)C4)CC3)c(F)c2)C(=O)N1 (stereo not drawn) [Compound 97, N-(2-chlorophenyl)-4-((2-((4-((2-((1-(4-(2,6-dioxopiperidin-3-yl)-2-fluorophenyl)piperidin-4-yl)methyl)-2,7-diazaspiro[3.5]nonan-7-yl)carbamoyl)phenyl)amino)-5-fluoropyrimidin-4-yl)amino)benzamide] | B (B is 0.3 to 0.5) | A (A is <0.2) | 50 to 100 |
| O=C1CCC(c2ccc(N3CCN(CCN4CCC(COc5ccc(Nc6ncc(F)c(Nc7ccc(C(=O)Nc8ccccc8Cl)cc7)n6)cc5)CC4)CC3)cc2)C(=O)N1 (stereo not drawn) [Compound 99, N-(2-chlorophenyl)-4-((2-((4-((1-(2-(4-(4-(2,6-dioxopiperidin-3-yl)phenyl)piperazin-1-yl)ethyl)piperidin-4-yl)methoxy)phenyl)amino)-5-fluoropyrimidin-4-yl)amino) benzamide] | D (D is 0.7 to 0.8) | B (B is 0.2 to 0.4) | > 200 |
| CN(Cc1ccc(Nc2ncc(F)c(Nc3ccc(C(=O)Nc4ccccc4Cl)cc3)n2)cc1)C1CCN(CCN2CCN(c3ccc(C4CCC(=O)NC4=O)cc3)CC2)CC1 (stereo not drawn) [Compound 100, N-(2-chlorophenyl)-4-((2-((4-(((1-(2-(4-(4-(2,6-dioxopiperidin-3-yl)phenyl)piperazin-1-yl)ethyl)piperidin-4-yl)(methyl)amino)methyl)phenyl)amino)-5-fluoropyrimidin-4-yl)amino)benzamide] | C (C is 0.5 to 0.7) | A (A is <0.2) | > 200 |
| O=C1CCC(c2ccc(N3CCN(CCC4CCN(NC(=O)c5ccc(Nc6ncc(F)c(Oc7ccc(C(=O)Nc8ccccc8Cl)cc7)n6)cc5)CC4)CC3)cc2)C(=O)N1 (stereo not drawn) [Compound 101, N-(2-chlorophenyl)-4-((2-((4-((4-(2-(4-(4-(2,6-dioxopiperidin-3-yl)phenyl)piperazin-1-yl)ethyl)piperidin-1-yl)carbamoyl)phenyl)amino)-5-fluoropyrimidin-4-yl)oxy) benzamide] | B (B is 0.3 to 0.5) | A (A is <0.2) | > 200 |
| O=C1CCC(c2ccc(N3CCN(CCC4CCN(NC(=O)c5ccc(Nc6ncc(F)c(Nc7ccc(C(=O)Nc8ccccc8)cc7)n6)cc5)CC4)CC3)cc2)C(=O)N1 (stereo not drawn) [Compound 103, 4-[[2-[4-[[4-[2-[4-[4-(2,6-dioxo-3-piperidyl)phenyl]piperazin-1-yl]ethyl]-1-piperidyl]carbamoyl]anilino]-5-fluoro-pyrimidin-4-yl]amino]-N-phenyl-benzamide] | B (B is 0.3 to 0.5) | A (A is <0.2) | 50 to 100 |
| O=C1CCC(c2ccc(N3CCN(CCC4CCN(NC(=O)c5ccc(Nc6ncc(F)c(Nc7ccc(NC(=O)c8ccccc8F)cc7)n6)cc5)CC4)CC3)cc2)C(=O)N1 (stereo not drawn) [Compound 104, N-[4-[[2-[4-[[4-[2-[4-[4-(2,6-dioxo-3-piperidyl)phenyl]piperazin-1-yl]ethyl]-1-piperidyl]carbamoyl]anilino]-5-fluoro-pyrimidin-4-yl]amino]phenyl]-2-fluoro-benzamide] | A (A is <0.3) | A (A is <0.2) | < 50 |
| O=C1CCC(Nc2cc(F)c(N3CCN(CCC4CCN(NC(=O)c5ccc(Nc6ncc(F)c(Nc7ccc(NC(=O)c8ccccc8F)cc7)n6)cc5F)CC4)CC3)cc2F)C(=O)N1 (stereo not drawn) [Compound 109, N-(4-(2-(4-(4-((2,6-dioxopiperidin-3-yl)amino)-2,5-difluorophenyl)piperazin-1-yl)ethyl)piperidin-1-yl)-2-fluoro-4-((5-fluoro-4-((4-(2-fluorobenzamido)phenyl)amino)pyrimidin-2-yl)amino)benzamide] | B (B is 0.3 to 0.5) | A (A is <0.2) | 50 to 100 |

Second part, led by results:

| luminescence value (Level) (Aurora kinase A (AURKA); 10 nM compound) | luminescence value (Level) (Aurora kinase A (AURKA); 100 nM compound) | Structure (SMILES) | IC50 (NCI-H446 cell line) [nM] |
| --- | --- | --- | --- |
| A (A is <0.3) | A (A is <0.2) | O=C1CC[C@H](Nc2ccc(N3CCN(CCC4CCN(NC(=O)c5ccc(Nc6ncc(F)c(Nc7ccc(C(=O)Nc8ccccc8Cl)cc7)n6)cc5)CC4)CC3)c(F)c2)C(=O)N1 [Compound 94, (S)—N-(2-chlorophenyl)-4-((2-((4-((4-(2-(4-(4-((2,6-dioxopiperidin-3-yl)amino)-2-fluorophenyl)piperazin-1-yl)ethyl)piperidin-1-yl)carbamoyl)phenyl)amino)-5-fluoropyrimidin-4-yl)amino)benzamide] | < 50 |
| B (B is 0.3 to 0.5) | A (A is <0.2) | O=C1CC[C@H](Nc2ccc(N3CCN(CCC4CCN(NC(=O)c5ccc(Nc6ncc(F)c(Nc7ccc(C(=O)Nc8ccccc8Cl)cc7)n6)cc5)CC4)CC3)cc2F)C(=O)N1 [Compound 95, (S)—N-(2-chlorophenyl)-4-((2-((4-((4-(2-(4-(4-((2,6-dioxopiperidin-3-yl)amino)-3-fluorophenyl)piperazin-1-yl)ethyl)piperidin-1-yl)carbamoyl)phenyl)amino)-5-fluoropyrimidin-4-yl)amino)benzamide] | 50 to 100 |
| A (A is <0.3) | A (A is <0.2) | O=C1CCC(c2ccc(N3CCN(CCC4CCN(NC(=O)c5ccc(Nc6ncc(F)c(Nc7ccc(C(=O)Nc8ccccc8Cl)cn7)n6)cc5)CC4)CC3)cc2)C(=O)N1 (stereo not drawn) [Compound 98, N-(2-chlorophenyl)-6-((2-((4-((4-(2-(4-(4-(2,6-dioxopiperidin-3-yl)phenyl)piperazin-1-yl)ethyl)piperidin-1-yl)carbamoyl)phenyl)amino)-5-fluoropyrimidin-4-yl)amino) nicotinamide] | 100 to 150 |
| A (A is <0.3) | A (A is <0.2) | Cn1c(=O)n(C2CCC(=O)NC2=O)c2ccc(N3CCN(CCC4CCN(NC(=O)c5ccc(Nc6ncc(F)c(Nc7ccc(C(=O)Nc8ccccc8Cl)cc7)n6)cc5)CC4)CC3)cc21 (stereo not drawn) [Compound 106, N-(2-chlorophenyl)-4-((2-((4-((4-(2-(4-(1-(2,6-dioxopiperidin-3-yl)-3-methyl-2-oxo-2,3-dihydro-1H-benzo[d]imidazol-5-yl)piperazin-1-yl)ethyl)piperidin-1-yl)carbamoyl)phenyl)amino)-5-fluoropyrimidin-4-yl)amino)benzamide] | 100 to 150 |
| A (A is <0.3) | A (A is <0.2) | O=C1CC[C@@H](Nc2ccc(N3CCN(CCC4CCN(NC(=O)c5ccc(Nc6ncc(F)c(Nc7ccc(C(=O)Nc8ccccc8Cl)cc7)n6)cc5)CC4)CC3)c(F)c2)C(=O)N1 [Compound 108, (R)—N-(2-chlorophenyl)-4-((2-((4-((4-(2-(4-(4-((2,6-dioxopiperidin-3-yl)amino)-2-fluorophenyl)piperazin-1-yl)ethyl)piperidin-1-yl)carbamoyl)phenyl)amino)-5-fluoropyrimidin-4-yl)amino)benzamide] | < 50 |
| C (C is 0.5 to 0.7) | B (B is 0.2 to 0.4) | O=C1CCC(c2ccc(N3CCN(CCC4CCN(C(=O)c5ccc(Nc6ncc(F)c(Nc7ccc(C(=O)Nc8ccccc8Cl)cc7)n6)cc5)CC4)CC3)cc2)C(=O)N1 (stereo not drawn) [Compound 110, N-(2-chlorophenyl)-4-[[2-[4-[4-[2-[4-[4-(2,6-dioxo-3-piperidyl)phenyl]piperazin-1-yl]ethyl]piperidine-1-carbonyl]anilino]-5-fluoro-pyrimidin-4-yl]amino]benzamide] | 150 to 200 |
| A (A is <0.3) | A (A is <0.2) | O=C1CC[C@@H](Nc2ccc(N3CCN(CCC4CCN(NC(=O)c5ccc(Nc6ncc(F)c(Nc7ccc(C(=O)Nc8ccccc8Cl)cc7)n6)cc5)CC4)CC3)cc2F)C(=O)N1 [Compound 111, (R)—N-(2-chlorophenyl)-4-((2-((4-((4-(2-(4-(4-((2,6-dioxopiperidin-3-yl)amino)-3-fluorophenyl)piperazin-1-yl)ethyl)piperidin-1-yl)carbamoyl)phenyl)amino)-5-fluoropyrimidin-4-yl)amino)benzamide] | < 50 |
